From ChEMBL document CHEMBL4814009, “A new anti-austerity agent, 4'-O-methylgrynullarin from Derris scandens induces PANC-1 human pancreatic cancer cell death under nutrition starvation via inhibition of Akt/mTOR pathway” (2021)

Key:
MIA PaCa-2 = assay: Anti-austerity activity against human MIA PaCa-2 cells assessed as cell killing in nutrient deprived medium; format: functional
[1] = Anti-austerity activity against human KLM-1 cells assessed as cell killing in nutrient deprived medium; format: functional
PANC-1 [2] = assay: Anti-austerity activity against human PANC-1 cells assessed as cell killing in nutrient deprived medium; format: functional
PSN1 = assay: Anti-austerity activity against human PSN1 cells assessed as cell killing in nutrient deprived medium; format: functional
PANC-1 [3] = assay: Inhibition of colony formation in human PANC-1 cells in nutrient rich DMEM medium measured treated for 24 hrs followed by replaced with fresh medium measured after 10 days by crystal violet staining based assay; format: functional, cell-based; settings: dose 6.25-25 µM
PANC-1 [4] = assay: Induction of apoptosis in human PANC-1 cells assessed as cell morphology by measuring red fluorescence incubated for 24 hrs in nutrient deprived medium by acridine orange and ethidium bromide dye based fluorescence microscopy analysis; format: functional; settings: dose 1-5 µM
PANC-1 [5] = assay: Antimigratory activity against human PANC1 cells assessed as wound area at 25 uM cultured in nutrient rich DMEM medium imaged every 10 mins for 24 hrs by quantitative real-time imaging based wound healing assay (reference value: 35%); format: functional
[6] = biological target: Serine/threonine-protein kinase mTOR (Homo sapiens) (UniProt P42345); assay: Inhibition of mTOR in human PANC-1 cells assessed as reduction in phosphorylation at S2448 incubated for 6 hrs by Western blot analysis; format: cell-based; settings: dose 1-10 µM
[7] = biological target: RAC-alpha serine/threonine-protein kinase (Homo sapiens) (UniProt P31749); assay: Inhibition of Akt in human PANC-1 cells assessed as reduction in phosphorylation at Ser473 incubated for 6 hrs by Western blot analysis; format: cell-based; settings: dose 1-10 µM
RAC-alpha serine/threonine-protein kinase (Homo sapiens), sequence (P31749 whole entry): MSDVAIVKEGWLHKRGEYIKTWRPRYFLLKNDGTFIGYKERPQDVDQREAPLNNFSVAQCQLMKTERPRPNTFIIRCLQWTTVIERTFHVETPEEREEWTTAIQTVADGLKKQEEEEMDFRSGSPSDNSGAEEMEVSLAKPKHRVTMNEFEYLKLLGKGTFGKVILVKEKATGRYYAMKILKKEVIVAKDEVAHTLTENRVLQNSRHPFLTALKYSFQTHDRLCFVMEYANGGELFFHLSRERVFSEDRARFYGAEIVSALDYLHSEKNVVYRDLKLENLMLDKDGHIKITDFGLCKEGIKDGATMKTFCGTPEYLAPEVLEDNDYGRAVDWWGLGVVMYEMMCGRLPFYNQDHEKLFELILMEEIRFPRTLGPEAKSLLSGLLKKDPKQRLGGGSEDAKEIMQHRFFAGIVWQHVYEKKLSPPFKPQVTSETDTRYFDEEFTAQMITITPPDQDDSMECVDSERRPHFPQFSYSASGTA

CC(C)=CCc1cc(-c2coc3cc(O)c(CC=C(C)C)c(O)c3c2=O)ccc1O [LUPALBIGENIN]
PC50 (MIA PaCa-2): 1.3 µM | PC50 [1]: 1 µM | PC50 (PANC-1 [2]): 1 µM | PC50 (PSN1): 1.5 µM

CC(C)=CCc1cc(-c2coc3cc(O)c(CC=C(C)C)c(O)c3c2=O)cc(O)c1O
PC50 (MIA PaCa-2): 0.8 µM | PC50 [1]: 0.9 µM | PC50 (PANC-1 [2]): 0.7 µM | PC50 (PSN1): 0.7 µM

COc1cc(C[C@H]2C(=O)OC[C@@H]2Cc2ccc(OC)c(OC)c2)ccc1O [ARCTIGENIN]
PC50 (MIA PaCa-2): 1.9 µM | PC50 [1]: 0.8 µM | PC50 (PANC-1 [2]): 0.7 µM | PC50 (PSN1): 0.7 µM

COc1c(O)cc(-c2coc3c(CC=C(C)C)c(O)cc(O)c3c2=O)cc1CC=C(C)C
inhibition (PANC-1 [3]): Dose-Dependent Effect | PC50 (MIA PaCa-2): 1.2 µM | Activity (PANC-1 [4]): Dose-Dependent Effect | PC50 [1]: 1.6 µM | Activity (PANC-1 [5]): 74% | PC50 (PANC-1 [2]): 1 µM | inhibition [6]: Dose-Dependent Effect | inhibition [7]: Dose-Dependent Effect | PC50 (PSN1): 1.8 µM

CC(C)=CCc1cc(-c2coc3c(CC=C(C)C)c(O)cc(O)c3c2=O)cc(O)c1O
PC50 (MIA PaCa-2): 10.9 µM | PC50 [1]: 10.1 µM | PC50 (PANC-1 [2]): 10 µM | PC50 (PSN1): 10.2 µM
